# Assay results published in ChEMBL document CHEMBL1133257, “Quinolones as gonadotropin releasing hormone (GnRH) antagonists: simultaneous optimization of the C(3)-aryl and C(6)-substituents” (Bioorg Med Chem Lett, 2000).
# “And” between values parts separate entries of the source, which are not always exact repeats. Equal entries are not always repeated.
# Tests used:
# [1] = Compound was evaluated for its antagonism in CHO cells expressing the human receptor (hPI); assay type: functional, cell-based
# [2] = target: T1, Gonadotropin-releasing hormone receptor (Rattus norvegicus, UniProt P30969); assay: Binding affinity to Gonadotropin-releasing hormone receptor (GnRHr) in rat pituitary cells
# T1 sequence (P30969 whole entry): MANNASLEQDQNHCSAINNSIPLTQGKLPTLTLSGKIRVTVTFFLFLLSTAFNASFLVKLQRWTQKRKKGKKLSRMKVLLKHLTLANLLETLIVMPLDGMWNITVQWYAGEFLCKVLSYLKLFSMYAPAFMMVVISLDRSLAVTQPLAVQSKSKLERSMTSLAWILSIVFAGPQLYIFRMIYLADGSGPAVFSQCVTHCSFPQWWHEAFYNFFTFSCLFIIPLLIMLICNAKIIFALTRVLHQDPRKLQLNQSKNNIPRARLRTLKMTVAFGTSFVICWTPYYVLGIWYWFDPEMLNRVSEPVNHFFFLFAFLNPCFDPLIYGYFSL
# [3] = target: T1, Gonadotropin-releasing hormone receptor; assay: Compound was evaluated for its antagonism in rat primary pituitary cell assay (rLH); assay type: functional, cell-based, Pituitary gland cell
# [4] = target: T1, Gonadotropin-releasing hormone receptor; assay: Compound was evaluated for its inhibitory activity against rat pituitary Gonadotropin-releasing hormone receptor
# [5] = target: T2, Gonadotropin-releasing hormone receptor (Homo sapiens, UniProt P30968); assay: Inhibition of recombinant human Gonadotropin-releasing hormone receptor
# T2 sequence (P30968 whole entry): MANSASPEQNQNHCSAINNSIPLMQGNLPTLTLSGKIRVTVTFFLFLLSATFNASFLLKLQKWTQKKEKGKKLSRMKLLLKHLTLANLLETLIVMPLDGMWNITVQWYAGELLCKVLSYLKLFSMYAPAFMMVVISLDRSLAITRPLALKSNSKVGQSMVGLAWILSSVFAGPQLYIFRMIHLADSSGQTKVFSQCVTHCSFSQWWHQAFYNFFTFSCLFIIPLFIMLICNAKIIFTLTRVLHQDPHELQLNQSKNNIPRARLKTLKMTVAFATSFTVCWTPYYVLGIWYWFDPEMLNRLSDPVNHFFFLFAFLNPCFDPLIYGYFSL
compound,measurement,setting,value
Cc1cc(C)cc(-c2c(O)nc3cc(Cl)c(NC(=O)NC4CC4)cc3c2OCCC2CCCCN2)c1 (stereo not drawn),IC50,[1],12 nM and 5 nM
same,IC50,[2],0.8 nM
same,IC50,[3],375 nM and 682 nM
same,IC50,[4],1.1 nM
Cc1ccc(-c2c(OCCC3CCCCN3)c3cc(NC(=O)NC4CC4)c(Cl)cc3[nH]c2=O)cc1C (stereo not drawn),IC50,[2],6 nM
CC(C)(C)c1ccc(-c2c(OCCC3CCCCN3)c3cc([N+](=O)[O-])c(Cl)cc3[nH]c2=O)cc1 (stereo not drawn),IC50,[2],200 nM
Cc1cc(C)cc(-c2c(O)nc3cc(Cl)c(NC(=O)Nc4ncccn4)cc3c2OCCC2CCCCN2)c1 (stereo not drawn),IC50,[2],6 nM
Cc1cccc(-c2c(OCCC3CCCCN3)c3cc(NC(=O)NC4CC4)c(Cl)cc3[nH]c2=O)c1 (stereo not drawn),IC50,[2],23 nM
O=[N+]([O-])c1cc2c(OCCC3CCCCN3)c(-c3ccc(Cl)c(Cl)c3)c(O)nc2cc1Cl (stereo not drawn),IC50,[2],29 nM
Cc1cc(-c2c(O)nc3cc(Cl)c([N+](=O)[O-])cc3c2OCCC2CCCCN2)cc(C(C)O)c1 (stereo not drawn),IC50,[2],63 nM
Cc1cc(C)cc(-c2c(O)nc3cc(Cl)c(NC(=O)Nc4ccccn4)cc3c2OCCC2CCCCN2)c1 (stereo not drawn),IC50,[2],15 nM
same,IC50,[3],463 nM
Cc1cc(CC#N)cc(-c2c(O)nc3cc(Cl)c([N+](=O)[O-])cc3c2OCCC2CCCCN2)c1 (stereo not drawn),IC50,[2],18 nM
O=C(Nc1ccncn1)c1cc2c(OCC[C@@H]3CCCCN3)c(-c3ccc4c(c3)CCC4)c(O)nc2cc1Cl,IC50,[5],0.7 nM
same,IC50,[1],16 nM
Cc1cc(C)cc(-c2c(OCCC3CCCCN3)c3cc(NC(=O)Nc4ccncn4)c(Cl)cc3[nH]c2=O)c1 (stereo not drawn),IC50,[2],0.6 nM
same,IC50,[3],235 nM and 52 nM
same,IC50,[4],0.4 nM
Cc1ccc(-c2c(O)nc3cc(Cl)c([N+](=O)[O-])cc3c2OCCC2CCCCN2)c(C)c1 (stereo not drawn),IC50,[2],400 nM
O=c1[nH]c2cc(Cl)c([N+](=O)[O-])cc2c(OCCC2CCCCN2)c1-c1cccs1 (stereo not drawn),IC50,[2],220 nM
Cc1cc(C)cc(-c2c(OCCC3CCCCN3)c3cc(NC(=O)Nc4ccccc4)c(Cl)cc3[nH]c2=O)c1 (stereo not drawn),IC50,[2],10 nM
same,IC50,[3],3300 nM
Cc1cc(C)cc(-c2c(O)nc3cc(Cl)c(NC(=O)c4cncnc4)cc3c2OCC[C@@H]2CCCCN2)c1,IC50,[1],225 nM
same,IC50,[2],25 nM
O=C(Nc1ccncn1)c1cc2c(OCC[C@@H]3CCCCN3)c(-c3ccc(Cl)s3)c(O)nc2cc1Cl,IC50,[5],3.9 nM
same,IC50,[1],53 nM
O=c1[nH]c2cc(Cl)c([N+](=O)[O-])cc2c(OCCC2CCCCN2)c1-c1ccsc1 (stereo not drawn),IC50,[2],900 nM
O=[N+]([O-])c1cc2c(OCCC3CCCCN3)c(-c3ccc(-c4ccccc4)c(Cl)c3)c(O)nc2cc1Cl (stereo not drawn),IC50,[2],900 nM
Cc1cccc(-c2c(O)nc3cc(Cl)c([N+](=O)[O-])cc3c2OCCC2CCCCN2)c1 (stereo not drawn),IC50,[2],27 nM
Cc1cc(C)cc(-c2c(O)nc3cc(Cl)c(NC(=O)c4cnccn4)cc3c2OCC[C@@H]2CCCCN2)c1,IC50,[5],2 nM
same,IC50,[1],23 nM
O=c1[nH]c2cc(Cl)c([N+](=O)[O-])cc2c(OCCC2CCCCN2)c1-c1cc(C(F)(F)F)cc(C(F)(F)F)c1 (stereo not drawn),IC50,[2],71 nM
O=c1[nH]c2cc(Cl)c([N+](=O)[O-])cc2c(OCCC2CCCCN2)c1-c1cc(Cl)cc(Cl)c1 (stereo not drawn),IC50,[2],24 nM
Cc1cc(C)cc(-c2c(OCC[C@@H]3CCCCN3)c3cc(NC(=O)NC4CC4)c(Cl)cc3[nH]c2=O)c1,IC50,[5],2.3 nM
Cc1cc(C)cc(-c2c(OCC[C@@H]3CCCCN3)c3cc(NC(=O)Nc4ccncn4)c(Cl)cc3[nH]c2=O)c1,IC50,[5],1.8 nM
O=[N+]([O-])c1cccc(-c2c(O)nc3cc(Cl)c([N+](=O)[O-])cc3c2OCCC2CCCCN2)c1 (stereo not drawn),IC50,[2],100 nM
Cc1cc(C)cc(-c2c(OCC[C@@H]3CCCCN3)c3cc(NC(=O)Nc4cnccn4)c(Cl)cc3[nH]c2=O)c1,IC50,[5],1.1 nM
Cc1ccc(-c2c(O)nc3cc(Cl)c(C(=O)Nc4ccncn4)cc3c2OCC[C@@H]2CCCCN2)cc1C,IC50,[5],0.7 nM
same,IC50,[1],6.5 nM
O=c1[nH]c2cc(Cl)c([N+](=O)[O-])cc2c(OCCC2CCCCN2)c1-c1cccc(Cl)c1 (stereo not drawn),IC50,[2],40 nM
Cc1cc(-c2c(O)nc3cc(Cl)c(C(=O)Nc4ccncn4)cc3c2OCC[C@@H]2CCCCN2)cc(C)c1C,IC50,[5],0.3 nM
same,IC50,[1],2.2 nM
O=C(Nc1ccncn1)c1cc2c(OCC[C@@H]3CCCCN3)c(-c3cc(Cl)cc(Cl)c3)c(O)nc2cc1Cl,IC50,[5],1.1 nM
same,IC50,[1],8.5 nM
O=C(Nc1cc2c(OCCC3CCCCN3)c(-c3cccc(Br)c3)c(=O)[nH]c2cc1Cl)NC1CC1 (stereo not drawn),IC50,[2],6 nM
O=C(Nc1cc2c(OCCC3CCCCN3)c(-c3ccc4ccccc4c3)c(=O)[nH]c2cc1Cl)NC1CC1 (stereo not drawn),IC50,[2],68 nM
COc1ccc(-c2c(O)nc3cc(Cl)c([N+](=O)[O-])cc3c2OCCC2CCCCN2)cc1OC (stereo not drawn),IC50,[2],600 nM
Cc1cc(C)cc(-c2c(O)nc3cc(Cl)c(NC(=O)Nc4ccncc4)cc3c2OCCC2CCCCN2)c1 (stereo not drawn),IC50,[2],40 nM
Cc1cc(-c2c(O)nc3cc(Cl)c(C(=O)Nc4ccncn4)cc3c2OCC[C@@H]2CCCCN2)ccc1I,IC50,[5],0.5 nM
same,IC50,[1],7.1 nM
O=[N+]([O-])c1cc2c(OCCC3CCCCN3)c(-c3cccc(F)c3)c(O)nc2cc1Cl (stereo not drawn),IC50,[2],53 nM
O=[N+]([O-])c1cc2c(OCCC3CCCCN3)c(-c3cccc(Br)c3)c(O)nc2cc1Cl (stereo not drawn),IC50,[2],40 nM
O=C(Nc1cc2c(OCCC3CCCCN3)c(-c3ccc(Cl)c(Cl)c3)c(O)nc2cc1Cl)NC1CC1 (stereo not drawn),IC50,[2],18 nM
Cc1cc(C)cc(-c2c(O)nc3cc(Cl)c(NC(=O)Nc4cnccn4)cc3c2OCCC2CCCCN2)c1 (stereo not drawn),IC50,[1],9 nM
same,IC50,[2],0.3 nM
same,IC50,[3],56 nM
COc1ccc(-c2c(OCCC3CCCCN3)c3cc([N+](=O)[O-])c(Cl)cc3[nH]c2=O)cc1C (stereo not drawn),IC50,[2],40 nM
O=c1[nH]c2cc(Cl)c([N+](=O)[O-])cc2c(OCCC2CCCCN2)c1-c1ccccc1Cl (stereo not drawn),IC50,[2],360 nM
Cc1cc(C)cc(-c2c(O)nc3cc(Cl)c(NC(=O)c4cnccn4)cc3c2OCCC2CCCCN2)c1 (stereo not drawn),IC50,[5],10 nM
same,IC50,[2],1.8 nM
same,IC50,[3],1920 nM
Cc1cc(CC(N)=O)cc(-c2c(O)nc3cc(Cl)c([N+](=O)[O-])cc3c2OCCC2CCCCN2)c1 (stereo not drawn),IC50,[2],71 nM
O=C(Nc1ccncn1)c1cc2c(OCC[C@@H]3CCCCN3)c(-c3ccc(Cl)c(Cl)c3)c(O)nc2cc1Cl,IC50,[5],1 nM
same,IC50,[1],7.7 nM
O=c1[nH]c2cc(Cl)c([N+](=O)[O-])cc2c(OCCC2CCCCN2)c1-c1ccc2ccccc2c1 (stereo not drawn),IC50,[2],53 nM
Cc1ccc(-c2c(OCCC3CCCCN3)c3cc([N+](=O)[O-])c(Cl)cc3[nH]c2=O)cc1C (stereo not drawn),IC50,[2],18 nM
Cc1cc(C)cc(-c2c(O)nc3cc(Cl)c(NC(=O)Nc4cncnc4)cc3c2OCC[C@@H]2CCCCN2)c1,IC50,[5],57 nM
same,IC50,[1],897 nM
Cc1cc(C)cc(-c2c(O)nc3cc(Cl)c(CC(=O)Nc4ccncn4)cc3c2OCCC2CCCCN2)c1 (stereo not drawn),IC50,[1],227 nM
same,IC50,[2],7.9 nM
same,IC50,[3],2500 nM
CC(=O)OCc1cc(C)cc(-c2c(O)nc3cc(Cl)c([N+](=O)[O-])cc3c2OCCC2CCCCN2)c1 (stereo not drawn),IC50,[2],45 nM
O=c1[nH]c2cc(Cl)c([N+](=O)[O-])cc2c(OCCC2CCCCN2)c1-c1ccc(Cl)cc1 (stereo not drawn),IC50,[2],160 nM
CCN(CC)Cc1cc(C)cc(-c2c(OCCC3CCCCN3)c3cc([N+](=O)[O-])c(Cl)cc3[nH]c2=O)c1 (stereo not drawn),IC50,[2],270 nM
O=c1[nH]c2cc(Cl)c([N+](=O)[O-])cc2c(OCCC2CCCCN2)c1-c1ccccc1 (stereo not drawn),IC50,[2],410 nM
O=c1[nH]c2cc(Cl)c([N+](=O)[O-])cc2c(OCCC2CCCCN2)c1-c1ccc(Cl)s1 (stereo not drawn),IC50,[2],23 nM
Cc1cc(C)cc(-c2c(O)nc3cc(Cl)c(NC(=O)Nc4cccnc4)cc3c2OCCC2CCCCN2)c1 (stereo not drawn),IC50,[2],20 nM
same,IC50,[3],1300 nM
